On to `CCOC(=O)c1cccc(SCCCN2CCC(n3c(CC)cc4cc(F)ccc43)CC2)c1` [Example 36, 3-{3-[4-(2-Ethyl-5-fluoro-indol-1-yl)-piperidin-1-yl]propylsulfanyl}-benzoic acid ethyl ester], for which the melting point was 179 to 181 °C.

The term melting point denotes the temperature of the solid-liquid transition.
